Key:
Format in all cases: in vivo
[1] = tested on: severe SMA mouse model (Taiwanese model); experiment: Survival of severe SMA mice after a single subcutaneous injection at PD0; conditions: until humane endpoint
Description: To examine whether DG9 peptide can increase the efficacy of PMO, we conjugated it to an 18-mer PMO with a sequence identical to nusinersen. The DG9-PMO, unconjugated PMO, and MOE were injected into SMA model mice [Cg-Tg(SMN2)2HungSmn1^tm1Hung/J; abbreviated as Smn^–/– SMN2^Tg/Tg; commonly called the Taiwanese model]. We also used an arginine-rich peptide (R6G) that is currently being explored in clinical trials for Duchenne muscular dystrophy (DMD) and used in preclinical studies for Hutchinson-Gilford progeria syndrome ([37], [38]). The benchmark control peptide R6G was conjugated to the same PMO sequence used in our study (R6G-PMO). […] We subcutaneously injected mice with the AOs or saline (nontreated, NT) administered at postnatal day 0 (PD0) at 2 doses: 40 mg/kg or 80 mg/kg. In our preliminary experiments, we also tested lower doses of 10 and 20 mg/kg (data not shown). […] The survival was recorded until a humane endpoint was reached. For the 40 mg/kg doses, the median survival was 12 days for unconjugated PMO, 15.5 days for MOE, and 17 days for R6G-PMO, which was increased to 58 days for DG9-PMO treatment (Figure 1A and Supplemental Figure 1A; supplemental material available online with this article; https://doi.org/10.1172/jci.insight.160516DS1). The median survival increased to 57 days for unconjugated PMO, 64 days for MOE, and 121 days for DG9-PMO at the higher dose of 80 mg/kg (Figure 1A). […] In spite of no statistical difference between DG9-PMO and MOE groups, the median survival of DG9-PMO still was higher than MOE, as only 1 mouse was alive until PD200 following a 40 mg/kg injection of MOE.
SMA-transgenic mice [JAX stock 005058 FVB.Cg-Tg(SMN2)2HungSmn1^tm1Hung/J] (Smn^–/–; SMN2^Tg/Tg), also known as Taiwanese mice, were purchased from Jackson Laboratory. Heterozygous mice for Smn1 (Smn1^+/–; SMN2^–/–) generated by us were crossed with mice homozygous for Smn1 Smn^–/–; SMN2^Tg/Tg generated by us to obtain the SMA mice (Smn^–/–; SMN2^Tg/–) or the heterozygous healthy control (Smn1^+/–; SMN2^Tg/–). The SMA mice display a severe overt phenotype similar to patients with SMA type I. The mice were genotyped using a PCR assay on genomic DNA isolated from tail biopsies using the Phire Tissue Direct PCR Kit (Thermo Fisher Scientific) as per the manufacturer’s instructions. The DNA was amplified using the primers described in Supplemental Table 1 using the condition Mouse Smn: 98°C/5 minutes → 98°C/5 s 58°C/10 s 72°C/10 s × 35 cycles → 72°C/1 minute.
(§1) Injections were carried out using a 30-gauge Hamilton syringe. SMA mice identified following genotyping were randomly assigned to a treatment group. The researcher injecting mice was blinded to the treatment. SMA neonates were subcutaneously injected with 40 or 80 mg/kg of AOs at PD0, while NT and heterozygous control mice were injected with saline (n = 10–49) per group. Tissues including the quadriceps muscle, liver, kidney, spleen, diaphragm, intercostal muscle, heart, brain, and spinal cord were collected and snap-frozen in dry ice– cooled isopentane, then subsequently stored at –80°C.

severe SMA mouse model [2] = experiment: Forelimb grip strength; conditions: 40 mg/kg s.c. at PD0, normalized to body weight
Description: This improvement was further bolstered by the forelimb grip strength assessment at PD30 in the DG9-PMO–treated mice (Figure 1E and Supplemental Figure 2A). […] We evaluated the relationship between the forelimb data and the sex at PD30. […] We also performed a rotarod test PD30 for the 40 mg/kg groups to assess their overall muscle coordination and balance ([41]). We observed that although the unconjugated PMO–treated mice had reduced forelimb grip strength, they were able to balance themselves on the rotating beam similar to DG9-PMO–treated mice owing to their smaller size and weight (Supplemental Figure 2C). Since we had only 2 MOE mice in this experiment, they were not included in the statistics. Taken together, based on conclusive findings from these functional tests, systemic injection of DG9-PMO improves motor function and muscle strength in both neonatal and adult SMA mice.
This assay was conducted as described in Treat NMD protocol SMA_M.2.1.002 ([73]). In short, the mouse is placed on the wire mesh of an automated grip strength meter (Columbus Instruments) such that only the front paws are allowed to grip the metal grid. The mouse is steadily pulled with the help of its tail, such that it lets go of the grid completely. PD30 and PD60 mice were used. Each mouse underwent 3 trials.

severe SMA mouse model [3] = experiment: Body weight of SMA mice at PD7
Description: as §1

severe SMA mouse model [4] = experiment: Hind limb suspension (HLS) assay (tube test); conditions: 40 mg/kg s.c. at PD0, PD2–PD12
Excerpt: To evaluate the effects of systemic DG9-PMO treatment on muscle strength and the function of motor neurons, we used several functional tests and compared motor function in the treated and NT mice at various time points. We performed the hind limb suspension (HLS) assay and the righting reflex test during the early weeks of life. […] It should be noted that the results beyond PD12 are biased, as only the healthiest unconjugated PMO–, MOE-, and R6G-PMO–treated mice survived to these time points.
This test was performed on neonatal mice PD2–PD12 as described in Treat NMD protocol SMA_M.2.2.001 ([72]). Briefly, neonatal mice were suspended on their hind limbs from a tube. They were scored based on the position of the hind limbs and their latency to fall was recorded with a 30-second cutoff. Each neonatal pup underwent 3 trials, with a 15-minute break between each trial. The average score was noted by the observer under a blinded test protocol.

[5] = single subcutaneous injection at PD0, 40 mg/kg
[6] = single subcutaneous injection at PD0, 80 mg/kg

Compound	median survival [1, 5] [days]	median survival [1, 6] [days]	forelimb grip force at PD30 (severe SMA mouse model [2])	body weight at PD7 versus R6G-PMO (severe SMA mouse model [3]; 40 mg/kg s.c. at PD0)	body weight at PD7 (severe SMA mouse model [3]; both doses (40 and 80 mg/kg) s.c. at PD0)	hind limb strength (HLS score) (severe SMA mouse model [4])
unconjugated PMO: PMO targeting ISS-N1 intron 7 (5′ TCACTTTCATAATGCTGG 3′), purchased from Gene Tools LLC (all phosphorodiamidate morpholino (PMO)) [reference compound]	12	57				
CC(=O)N[C@@H](Cc1ccc(O)cc1)C(=O)N[C@@H](C)C(=O)N[C@H](CCCNC(=N)N)C(=O)N[C@H](C(=O)N[C@@H](CCCNC(=N)N)C(=O)N[C@@H](CCCNC(=N)N)C(=O)N[C@H](CCCNC(=N)N)C(=O)NCC(=O)N1CCC[C@H]1C(=O)N[C@@H](CCCNC(=N)N)C(=O)NCC(=O)N[C@@H](Cc1ccc(O)cc1)C(=O)N[C@@H](C)C(=O)N[C@H](CCCNC(=N)N)C(=O)N[C@H](C(=O)N[C@@H](CCCNC(=N)N)C(=O)N[C@@H](CCCNC(=N)N)C(=O)N[C@H](CCCNC(=N)N)C(=O)NCC(=O)N1CCC[C@H]1C(=O)N[C@@H](CCCNC(=N)N)C(=O)N[C@H](CCCNC(=N)N)C(=O)N1C[C@@H](COP(=O)(N(C)C)N2C[C@@H](COP(=O)(N(C)C)N3C[C@@H](COP(=O)(N(C)C)N4C[C@@H](COP(=O)(N(C)C)N5C[C@@H](COP(=O)(N(C)C)N6C[C@@H](COP(=O)(N(C)C)N7C[C@@H](COP(=O)(N(C)C)N8C[C@@H](COP(=O)(N(C)C)N9C[C@@H](COP(=O)(N(C)C)N%10C[C@@H](COP(=O)(N(C)C)N%11C[C@@H](COP(=O)(N(C)C)N%12C[C@@H](COP(=O)(N(C)C)N%13C[C@@H](COP(=O)(N(C)C)N%14C[C@@H](COP(=O)(N(C)C)N%15C[C@@H](COP(=O)(N(C)C)N%16C[C@@H](COP(=O)(N(C)C)N%17C[C@@H](COP(=O)(N(C)C)N%18C[C@@H](COP(=O)(N(C)C)N%19CCC(C(N)=O)CC%19)O[C@@H](n%19cc(C)c(=O)[nH]c%19=O)C%18)O[C@@H](n%18ccc(N)nc%18=O)C%17)O[C@@H](n%17cnc%18c(N)ncnc%18%17)C%16)O[C@@H](n%16ccc(N)nc%16=O)C%15)O[C@@H](n%15cc(C)c(=O)[nH]c%15=O)C%14)O[C@@H](n%14cc(C)c(=O)[nH]c%14=O)C%13)O[C@@H](n%13cc(C)c(=O)[nH]c%13=O)C%12)O[C@@H](n%12ccc(N)nc%12=O)C%11)O[C@@H](n%11cnc%12c(N)ncnc%12%11)C%10)O[C@@H](n%10cc(C)c(=O)[nH]c%10=O)C9)O[C@@H](n9cnc%10c(N)ncnc%109)C8)O[C@@H](n8cnc9c(N)ncnc98)C7)O[C@@H](n7cc(C)c(=O)[nH]c7=O)C6)O[C@@H](n6cnc7c(=O)[nH]c(N)nc76)C5)O[C@@H](n5ccc(N)nc5=O)C4)O[C@@H](n4cc(C)c(=O)[nH]c4=O)C3)O[C@@H](n3cnc4c(=O)[nH]c(N)nc43)C2)O[C@@H](n2cnc3c(=O)[nH]c(N)nc32)C1)C(C)C)C(C)C (some centres unmarked) [DG9-PMO]	58	121	forelimb grip force comparable to the Hets and significantly higher than the unconjugated PMO– and MOE-treated mice	weighed significantly more than R6G-PMO–treated neonates	significantly heavier than the NT and unconjugated PMO–treated littermates	hind limb strength comparable to the Hets at PD12
